Type in all cases: in vivo
Assay [1] relates to Setaria viridis. In words: Pre-emergence herbicidal action against harmful plants. The note with it: visual scoring 3-4 weeks after treatment. The text has this: (§1) 1. Pre-Emergence Herbicidal Action Against Harmful Plants Seeds or rhizome pieces of mono- and dicotyledonous harmful plants are placed in sandy loam in pots of a diameter of 9 to 13 cm and covered with soil. The herbicides, formulated as emulsifiable concentrates or dusts, are applied to the surface of the covering soil in the form of aqueous dispersions or suspensions or emulsions at an application rate of 300 to 800 l of water/ha (converted), at various dosages. For further cultivation of the plants, the pots are then kept in a greenhouse under optimum conditions. The visual scoring of the damage to the harmful plants is carried out 3-4 weeks after the treatment. As shown by the results of these comparative tables, the selected compounds according to the invention have better herbicidal activity against a broad spectrum of economically important mono- and dicotyledonous harmful plants than the compounds disclosed in the prior art.

The next assay relates to Echinochloa crus galli. The description is as above. The note with it: visual scoring 3-4 weeks after treatment.
Excerpt: as §1

The next assay deals with Avena fatua. The description is as above. The settings on record: Comparative Table 5, 80 g a.i./ha, visual scoring 3-4 weeks after treatment.
Excerpt: as §1

The subject of assay [2] is Amaranthus retroflexus. Described as above. The settings on record: Comparative Table 5, 80 g a.i./ha, visual scoring 3-4 weeks after treatment.
Excerpt: as §1

The subject of a further assay is Stellaria media. The experiment in a line: Post-emergence herbicidal action against harmful plants. The note with it: Comparative Table 8, 20 g a.i./ha, scored after 3 to 4 weeks. How it is done:
(§2) 2. Post-Emergence Herbicidal Action Against Harmful Plants
(§3) Seeds of mono- and dicotyledonous harmful plants are placed in sandy loam in cardboard pots, covered with soil and grown in the greenhouse under good growth conditions. Two to three weeks after sowing, the test plants are treated at the three-leaf stage. The compounds according to the invention, which are formulated as wettable powders or as emulsion concentrates, are sprayed at an application rate of 600 to 800 l of water/ha (converted) in a dosage stated in tables 1 to 5 onto the surface of the green plant parts. After the test plants have been left to stand in the greenhouse for 3 to 4 weeks under optimum growth conditions, the action of the compounds according to the invention is scored in comparison to compounds disclosed in the prior art. As shown by the results of these comparison tables, the selected compounds according to the invention have better herbicidal activity against a broad spectrum of economically important mono- and dicotyledonous harmful plants than the compounds disclosed in the prior art.

Assay [3] relates to Veronica persica. Described as above. The settings on record: scored after 3 to 4 weeks. The method, then: as §2, §3
Assay [4] relates to Setaria viridis. Described as above. The note with it: scored after 3 to 4 weeks, read-out: Activity against harmful plants SETVI; for pest or weed control at 80 g/ha: Comparative Table 2, 80 g a.i./ha. How it is done: as §2, §3
A further assay concerns Abutilon theophrasti. The description is as above. The note with it: Comparative Table 8, 20 g a.i./ha, scored after 3 to 4 weeks. How it is done: as §2, §3
The subject of assay [5] is Amaranthus retroflexus. The description is as above. The settings on record: scored after 3 to 4 weeks. The method, then: as §2, §3
Another assay has as its system Viola tricolor. Described as above. The note with it: scored after 3 to 4 weeks. The method, then:
as §2, §3

Another assay concerns Pharbitis purpureum. The description is as above. The note with it: scored after 3 to 4 weeks. How it is done:
as §2, §3

Assay [6] deals with Polygonum convolvulus. Described as above. The note with it: Comparative Table 1, 20 g a.i./ha, scored after 3 to 4 weeks. How it is done:
as §2, §3

A further assay has as its system Xanthium strumarium. The description is as above. The settings on record: Comparative Table 1, 20 g a.i./ha, scored after 3 to 4 weeks. How it is done: as §2, §3
Assay [7] deals with Polygonum convolvulus. The experiment in a line: Pre-emergence herbicidal action against harmful plants. The note with it: Comparative Table 7, 320 g a.i./ha, visual scoring 3-4 weeks after treatment.
Excerpt: as §1

For assay [8], the system named is Veronica persica. Described as above. The settings on record: Comparative Table 7, 320 g a.i./ha, visual scoring 3-4 weeks after treatment.
Excerpt: as §1

For a further assay, the system named is Cyperus serotinus. The description is as above. The settings on record: Comparative Table 7, 320 g a.i./ha, visual scoring 3-4 weeks after treatment.
Excerpt: as §1

The next assay relates to Digitaria sanguinalis. In words: Post-emergence herbicidal action against harmful plants. The settings on record: Comparative Table 4, 20 g a.i./ha, scored after 3 to 4 weeks. The method, then: as §2, §3
For another assay, the system named is Galium aparine. The assay is described as above. The settings on record: Comparative Table 4, 20 g a.i./ha, scored after 3 to 4 weeks. How it is done:
as §2, §3

The mark [9] stands for this setting: Comparative Table 6, 20 g a.i./ha.
The mark [10] stands for this setting: Comparative Table 5, 80 g a.i./ha.
[11] abbreviates: Comparative Table 8, 20 g a.i./ha.
Setting [12] is: Comparative Table 2, 80 g a.i./ha.
[13] abbreviates: Comparative Table 1, 20 g a.i./ha.
[14] abbreviates: Comparative Table 3, 20 g a.i./ha.
The mark [15] stands for this setting: Comparative Table 4, 20 g a.i./ha.

Where two headings read alike, the source gives them in different places.

On to `CCNc1c(S(C)(=O)=O)ccc(C(=O)c2cnn(C)c2O)c1Cl`, for which the “Activity against harmful plants SETVI” value with Setaria viridis [1] (setting [9]) came out at 0%. Besides, the “Activity against harmful plants ECHCG” value with Echinochloa crus galli (setting [9]) stood at 60%.
On the same counts, the results for `CCNc1c(S(C)(=O)=O)ccc(C(=O)c2cnn(C)c2O)c1C` are 60% and 90%.
Turning to `CCOCCNc1c(S(C)(=O)=O)ccc(C(=O)c2cnn(C)c2O)c1C`, in the assay on Setaria viridis [1] (setting [10]), the “Activity against harmful plants SETVI” value was determined as 100%. For the same compound, in the assay on Avena fatua, the “Activity against harmful plants AVEFA” value is recorded as 50%. Besides, the “Activity against harmful plants AMARE” value in the assay on Amaranthus retroflexus [2] is on record as 100%. In the assay on Echinochloa crus galli (setting [10]), the “Activity against harmful plants ECHCG” value is recorded as 100%.
Regarding `Cc1c(C(=O)c2cnn(C)c2O)ccc(S(C)(=O)=O)c1N(C)CC1CC1`, the “Activity against harmful plants STEME” value in the assay with Stellaria media was 100%. Besides, in the assay with Veronica persica [3] (setting [11]), the “Activity against harmful plants VERPE” value is reported as 80%. Besides, in the assay on Setaria viridis [4] (setting [11]), the pest or weed control at 20 g/ha was 90%. Moreover, in the assay on Abutilon theophrasti, the “Activity against harmful plants ABUTH” value is 90%.
For the compound `COCCCN(C)c1c(S(C)(=O)=O)ccc(C(=O)c2cnn(C)c2O)c1C`, the pest or weed control at 80 g/ha with Setaria viridis [4] came to 100%. For the same compound, the “Activity against harmful plants AMARE” value with Amaranthus retroflexus [5] (setting [12]) came out at 100%. The “Activity against harmful plants VIOTR” value with Viola tricolor (setting [12]) turned out to be 90%. In addition, the “Activity against harmful plants PHBPU” value in the assay on Pharbitis purpureum (setting [12]) stood at 70%.
On to `CNc1c(S(C)(=O)=O)ccc(C(=O)c2cnn(C)c2O)c1Cl`, for which the “Activity against harmful plants POLCO” value in the assay with Polygonum convolvulus [6] is 40%. Also, the “Activity against harmful plants AMARE” value with Amaranthus retroflexus [5] (setting [13]) amounted to 70%. Besides, in the assay on Viola tricolor (setting [13]), the “Activity against harmful plants VIOTR” value is 70%. The “Activity against harmful plants XANST” value in the assay on Xanthium strumarium stood at 50%.
Turning to `COCCN(C)c1c(S(C)(=O)=O)ccc(C(=O)c2cnn(C)c2O)c1C`, in the assay with Veronica persica [3] (setting [14]), the “Activity against harmful plants VERPE” value was found to be 100%. In addition, the pest or weed control at 20 g/ha in the assay with Setaria viridis [4] (setting [14]) worked out at 90%. The “Activity against harmful plants AMARE” value in the assay with Amaranthus retroflexus [5] (setting [14]) was found to be 90%. Besides, the “Activity against harmful plants PHBPU” value in the assay with Pharbitis purpureum (setting [14]) worked out at 80%.
Take `Cc1c(C(=O)c2cnn(C)c2O)ccc(S(C)(=O)=O)c1NCC1CC1`: the “Activity against harmful plants POLCO” value in the assay with Polygonum convolvulus [7] amounted to 60%. In the assay with Veronica persica [8], the “Activity against harmful plants VERPE” value is listed as 100%. Also, the “Activity against harmful plants CYPES” value with Cyperus serotinus was 100%.
Take `COCCCN(C)c1c(S(C)(=O)=O)ccc(C(=O)c2cnn(C)c2O)c1Cl`: in the assay on Setaria viridis [4], the pest or weed control at 80 g/ha came to 0%. The “Activity against harmful plants AMARE” value in the assay with Amaranthus retroflexus [5] (setting [12]) worked out at 70%. The “Activity against harmful plants VIOTR” value in the assay on Viola tricolor (setting [12]) is on record as 70%. In addition, in the assay with Pharbitis purpureum (setting [12]), the “Activity against harmful plants PHBPU” value was 40%.
Turning to `CCCNc1c(S(C)(=O)=O)ccc(C(=O)c2cnn(C)c2O)c1Cl`, the “Activity against harmful plants DIGSA” value in the assay on Digitaria sanguinalis was determined as 70%. In addition, the “Activity against harmful plants VERPE” value in the assay on Veronica persica [3] (setting [15]) came to 30%. Moreover, the pest or weed control at 20 g/ha in the assay on Setaria viridis [4] (setting [15]) was 50%. The “Activity against harmful plants GALAP” value in the assay with Galium aparine was determined as 30%.
For the compound `CN(CC1CC1)c1c(S(C)(=O)=O)ccc(C(=O)c2cnn(C)c2O)c1Cl`, in the assay with Stellaria media, the “Activity against harmful plants STEME” value is 80%. Moreover, the “Activity against harmful plants VERPE” value in the assay with Veronica persica [3] (setting [11]) amounted to 60%. Further, the pest or weed control at 20 g/ha in the assay on Setaria viridis [4] (setting [11]) is 30%. The “Activity against harmful plants ABUTH” value in the assay with Abutilon theophrasti is on record as 70%.
For the compound `COCCN(C)c1c(S(C)(=O)=O)ccc(C(=O)c2cnn(C)c2O)c1Cl`, in the assay on Veronica persica [3] (setting [14]), the “Activity against harmful plants VERPE” value is 60%. Also, the pest or weed control at 20 g/ha in the assay with Setaria viridis [4] (setting [14]) stood at 50%. Further, the “Activity against harmful plants AMARE” value in the assay with Amaranthus retroflexus [5] (setting [14]) turned out to be 60%. In addition, the “Activity against harmful plants PHBPU” value with Pharbitis purpureum (setting [14]) was 30%.
`CCOCCNc1c(S(C)(=O)=O)ccc(C(=O)c2cnn(C)c2O)c1Cl`: in the assay with Setaria viridis [1] (setting [10]), the “Activity against harmful plants SETVI” value is listed as 80%. Moreover, the “Activity against harmful plants AVEFA” value in the assay on Avena fatua is on record as 0%. For the same compound, the “Activity against harmful plants AMARE” value in the assay with Amaranthus retroflexus [2] is on record as 80%. In addition, the “Activity against harmful plants ECHCG” value in the assay with Echinochloa crus galli (setting [10]) was determined as 40%.
`CCCNc1c(S(C)(=O)=O)ccc(C(=O)c2cnn(C)c2O)c1C`: in the assay with Digitaria sanguinalis, the “Activity against harmful plants DIGSA” value is 90%. Further, in the assay on Veronica persica [3] (setting [15]), the “Activity against harmful plants VERPE” value was 70%. Further, the pest or weed control at 20 g/ha in the assay on Setaria viridis [4] (setting [15]) turned out to be 80%. Further, in the assay with Galium aparine, the “Activity against harmful plants GALAP” value was determined as 80%.
As to `Cn1ncc(C(=O)c2ccc(S(C)(=O)=O)c(NCC3CC3)c2Cl)c1O`, the “Activity against harmful plants POLCO” value with Polygonum convolvulus [7] was determined as 0%. Moreover, the “Activity against harmful plants VERPE” value with Veronica persica [8] was found to be 80%. Besides, in the assay with Cyperus serotinus, the “Activity against harmful plants CYPES” value was determined as 40%.
Take `CNc1c(S(C)(=O)=O)ccc(C(=O)c2cnn(C)c2O)c1C`: the “Activity against harmful plants POLCO” value in the assay with Polygonum convolvulus [6] is listed as 90%. The “Activity against harmful plants AMARE” value in the assay on Amaranthus retroflexus [5] (setting [13]) amounted to 90%. For the same compound, the “Activity against harmful plants VIOTR” value in the assay on Viola tricolor (setting [13]) amounted to 100%. Moreover, in the assay with Xanthium strumarium, the “Activity against harmful plants XANST” value was determined as 80%.

Values taken from patent publication US7943550B2, “4-(3-Aminobenzoyl)-1 methylpyrazoles and their use as herbicides” (Bayer Cropscience AG, priority 2007, dated 2011).
